What was measured:
[1] = tested on: intestinal epithelial cell lines (HT29, Caco-2 and T84); assay: Cytokine secretion by intestinal epithelial cell lines; assay type: cell-based; settings: even at 40 μg/ml
Method: (§1) For stimulation cells were seeded on polystyrene wells at a density of 1×10^6/ml. Unless otherwise stated supernatants were harvested after a 16 hr incubation with various stimulants.
(§2) The concentration of IL-8, TNF-α, MCP-1, RANTES, and mouse IL-8 (KC) in cell culture supernatants and serum samples was determined using validated ELISAs (IL-8, hTNFα: BD Pharmingen, San Jose, CA; MCP-1, hRANTES, mRANTES, KC: R&D Systems, (Minneapolis, MN; mTNFα: eBioscience, San Diego, CA), according to the manufacturer's protocols.

celiac biopsies = settings: shown previously; cited from earlier work
U937 = assay: Cytokine secretion by stimulated U937 monocytic cells (ELISA); assay type: cell-based, human; settings: even at 40 μg/ml
Description: (§3) To examine how far gliadin elicits innate immune responses, we stimulated the human monocytic cell lines THP-1 and U937 with different concentrations of gliadin digested with pepsin and trypsin (PT gliadin) and measured secretion of proinflammatory cytokines in the supernatant. A digest of zein, partly homolgous storage proteins from corn that lack toxicity for patients with celiac disease, served as negative control. […] To rule out LPS contamination as trigger of innate responses, gliadin, LPS, and TNF-α were digested with proteinase K, completely digesting and abrogating all peptide-related activities.
(§4) THP-1, U937, HEK-293 (all from ATCC, Manassas, VA), and HEK-293 cells stably transfected with the TLR4-CD14-MD2 complex (Invivogen) were cultured in complete RPM or DMEM (Cellgro, Manassas, VA) supplemented with penicillin/streptomycin and 10% fetal calf serum at 37° C. in a 5% CO2 atmosphere.
as §1, §2

THP-1 = assay: Cytokine secretion by stimulated THP-1 monocytic cells (ELISA); assay type: cell-based, human
Description: as §3, §4, §1
After proteinase K inactivation by boiling for 5 minute the digests were used for cell stimulation.
as §2

[2] = target: T1, human TLR4-CD14-MD2-complex (Homo sapiens, UniProt O00206+Q9Y6Y9); assay: IL-8 secretion by HEK-293 cells transfected with TLR4-CD14-MD2 complex; assay type: cell-based; settings: for IL-8 secretion: TLR4-CD14-MD2 transfected HEK-293; for stimulatory activity after additional purification using an endotoxin depletion column: 5 μg/ml, IL-8 after 24 h, FIG. 9C
T1 construct: host or cells: HEK-293 (stably transfected)
T1 sequence (O00206 24-839): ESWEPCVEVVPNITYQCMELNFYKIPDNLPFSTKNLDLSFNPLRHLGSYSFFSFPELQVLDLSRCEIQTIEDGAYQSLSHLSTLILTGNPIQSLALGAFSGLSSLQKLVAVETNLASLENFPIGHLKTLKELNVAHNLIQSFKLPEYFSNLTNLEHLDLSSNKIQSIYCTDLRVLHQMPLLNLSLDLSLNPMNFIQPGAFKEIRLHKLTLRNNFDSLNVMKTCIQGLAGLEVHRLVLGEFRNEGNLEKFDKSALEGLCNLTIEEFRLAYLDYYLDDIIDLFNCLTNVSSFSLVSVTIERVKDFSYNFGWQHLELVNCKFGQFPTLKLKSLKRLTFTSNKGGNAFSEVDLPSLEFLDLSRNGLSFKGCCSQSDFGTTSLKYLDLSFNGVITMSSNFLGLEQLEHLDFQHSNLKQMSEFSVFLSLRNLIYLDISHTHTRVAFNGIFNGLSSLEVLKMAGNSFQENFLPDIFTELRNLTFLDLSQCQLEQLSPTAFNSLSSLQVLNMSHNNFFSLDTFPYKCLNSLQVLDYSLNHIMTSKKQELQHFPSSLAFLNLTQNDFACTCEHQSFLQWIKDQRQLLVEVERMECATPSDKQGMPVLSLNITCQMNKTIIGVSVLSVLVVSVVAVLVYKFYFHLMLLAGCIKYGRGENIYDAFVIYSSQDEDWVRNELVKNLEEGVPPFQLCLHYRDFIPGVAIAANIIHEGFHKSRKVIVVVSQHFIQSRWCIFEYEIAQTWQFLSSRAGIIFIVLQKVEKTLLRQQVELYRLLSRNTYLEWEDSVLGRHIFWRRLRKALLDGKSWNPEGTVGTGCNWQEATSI
T1 sequence (Q9Y6Y9 17-160 limits assumed): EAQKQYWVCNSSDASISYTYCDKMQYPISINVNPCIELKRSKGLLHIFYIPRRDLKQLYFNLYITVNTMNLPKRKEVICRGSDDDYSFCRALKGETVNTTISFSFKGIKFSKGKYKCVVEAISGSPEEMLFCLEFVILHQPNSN
Method: as §4, §1, §2
While sufficient CM3 protein was secreted into the media, 0.19 ATI had to be isolated from the detergent-soluble fraction. Briefly, HEK-cells expressing 0.19 were washed with ice cold-PBS, resuspended in 50 ml of buffer C for 15 min on ice, and centrifuged at 14,000 rpm for 20 min at 4° C. Thus, the solubilized 0.19 and soluble CM3 were bound to Flag-M2 agarose (Sigma-Aldrich) pre-equilibrated with buffer C by gentle shaking for 3 h at 4° C., washed three times with buffer C, and further washed three times with buffer D (Buffer C without detergents). Bound ATIs were eluted with TBS [pH 7.4] containing Flag peptide (Sigma-Aldrich). In order to rigorously exclude endotoxin, eluted CM3 and 0.19 were also applied to an entotoxin removal column (Norgen Biotek corp., Thorold, ON, Canada). ATIs were the used at 5 μg/ml to stimulate HEK-293 cells stably transfected with the TLR4-CD14-MD2 complex, and IL-8 secretion was quantified after 24 h using the IL-8 ELISA as described above.

[3] = tested on: peritoneal macrophages of C3H/HeJ mice that lack TLR4 responses; assay: Cytokine secretion by peritoneal macrophages of TLR4 deficient C3H/HeJ versus C3H/HeOuJ mice; assay type: cell-based, mouse; settings: TLR4 deficient C3H/HeJ compared to syngenic C3H/HeOuJ TLR4 competent mice
Method: Since MyD88 transmits signals from several TLRs, we studied peritoneal macrophages of C3H/HeJ mice that lack TLR4 responses due to a spontaneous point mutation in the TLR4 gene.
Murine resident peritoneal macrophages were isolated by peritoneal lavage using a 3 ml syringe and 18 G needles. Three 3 ml of sterile PBS was injected into the peritoneal cavity and reaspirated after gentle massage of the abdomen. For further purification MACS separation for CD11b positive cells was done according to the manufacturer's protocol (Miltenyi).
as §1
C3H/HeJ, C3H/HeOuJ and Rag1−/− mice were obtained from The Jackson Laboratory (Bar Harbour, ME). The MyD88−/− mice were a kind gift from S. Akira, (Osaka University, Osaka, Japan). Congenic C57BL/6J mice served as experimental controls and were bred under the same conditions in the same facility. All experiments were done with mice at age 5-7 weeks.
as §2

TLR4-pathway = assay: Downstream signaling by CM3 and 0.19 overexpression in TLR4-CD14-MD2 expressing HEK-293 cells (Western blot); assay type: cell-based; settings: overexpression in TLR4/MD2/CD14 expressing HEK-293 cells
Method: FIG. 9D is a western blot showing expression of CM3 and 0.19 in TLR4-CD14-MD2 expressing HEK-293 cells (HEK-TLR4) induces downstream signaling of the canonical (p-NF-κB/p65) and the alternative (p-IRF3) pathways. Western blots of whole cell lysates (50 μg protein).
HEK-293 cells stably expressing TLR4-CD14-MD2 were induced to express CM3 or 0.19, respectively, followed by cell lysis in buffer C. Lysates were cleared by centrifugation at 14,000 rpm for 20 min at 4° C., and 50 μg of protein run on a 15% SDS-gel and subjected to Western blotting to analyze activation of the canonical and the alternative (p-IRF3) pathways using antibodies to phosphorylated and unphosphorylated (p-NF-κB/p65) and IRF3 (all from Cell Signaling Technology, Danvers, MA).

[4] = tested on: human monocyte-derived dendritic cells (DC); assay: Cytokine secretion by human monocyte-derived dendritic cells (ELISA); assay type: cell-based
Method: For isolation of peripheral monocytes 40 ml blood was obtained from 11 patients with celiac disease during their diagnostic workup (median 37 years, range 18-59 years), after prior informed consent Eight patients were on gluten free diet and in clinical remission, three patients were newly diagnosed and therefore on a regular gluten containing diet Control monocytes were from the buffy coat of leukopheresis concentrates of anonymous blood donors. Whole EDTA blood or leukapheresis concentrates were subjected to density gradient centrifugation over Ficoll-Hypaque (GE Healthcare, Pittsburgh, PA) and CD14-positive monocytes purified by MACS separation according to the manufacturer's protocol (Miltenyi, Bergisch Gladbach, Germany). For generation of dendritic cells, monocytes were cultured in RPMI supplemented with 10% fetal calf serum, 200 U/ml rhIL-4 and 300 U/ml rhGM-CSF (both from PeproTech, Rocky Hill, NJ) for 6-8 days.
For stimulation cells were seeded on polystyrene wells at a density of 1×10^6/ml. […]
as §2

**Q.** With “LGQQQPFPPQQPY [p31-43, Peptide p31-43 of α-gliadin]” as the molecule, how does the IL-8 secretion [1] read?
**A.** did not elicit secretion

**Q.** What about the MCP-1 secretion [1] of the same molecule?
**A.** did not elicit secretion

**Q.** What about the TNF-α secretion [1] of the same molecule?
**A.** did not elicit secretion

**Q.** What about the IL-15 secretion (celiac biopsies) of the same molecule?
**A.** increases IL-15 secretion

**Q.** What about the IL-8 secretion (U937) of the same molecule?
**A.** did not elicit secretion

**Q.** What about the MCP-1 secretion (U937) of the same molecule?
**A.** did not elicit secretion

**Q.** And the TNF-α secretion (U937)?
**A.** did not elicit secretion

**Q.** What about the IL-8 secretion (THP-1; even at 40 μg/ml) of the same molecule?
**A.** did not elicit secretion

**Q.** And the MCP-1 secretion (THP-1; even at 40 μg/ml)?
**A.** did not elicit secretion

**Q.** And the TNF-α secretion (THP-1; even at 40 μg/ml)?
**A.** did not elicit secretion

**Q.** Which IL-8 secretion [2] does the source give for “N-Palmitoyl-S-[2,3-bis(palmitoyloxy)-(2RS)-propyl]-[R]-cysteinyl-[S]-seryl-[S]-lysyl-[S]-lysyl-[S]-lysyl-[S]-lysine x3 HCl [Pam3CSK4]” here?
**A.** absence of IL-8 induction

**Q.** And the “KC (IL-8) secretion” value [3]?
**A.** equally high amounts

**Q.** And the TNF-α secretion [3]?
**A.** equally high amounts

**Q.** Which “IL-8 induction after proteinase K digestion of the stimulant” value (THP-1; 20 μg/ml proteinase K, 4 hrs at 56° C., FIG. 1F) does the source give for TNF-α here?
**A.** lost its stimulatory capacity

B1: CM3: recombinant flag-tagged wheat alpha amylase inhibitor CM3 (SEQ ID NO: 1) expressed in HEK-293 cells (protein)
chain: MACKSSCSLLLLAAVLLSVLAAASASGSCVPGVAFRTNLLPHCRDYVLQQTCGTFTPGSLPEWMTSASIYSPGKPYLAKLYCCQELAEISQQCRCEALRYFIALPVPSQPVDPRSGNVGESGLIDLPGCPREMQWDFVRLLVAPGQCNLATIHNVRYCPAVEQPLWIDYKDDDDK
modifications: FLAG tag
**Q.** For B1, which “alternative TLR4-pathway (p-IRF3)” value (TLR4-pathway) is on record?
**A.** strongly induced

**Q.** And the “canonical TLR4-pathway (p-NF-κB/p65)” value (TLR4-pathway)?
**A.** strongly induced

**Q.** And the “stimulatory activity after additional purification using an endotoxin depletion column” value [2]?
**A.** maintained

**Q.** And the IL-8 secretion [2]?
**A.** stimulated

**Q.** What about the IL-8 secretion [4] of the same molecule?
**A.** upregulated IL-8 secretion

B2: 0.19: recombinant flag-tagged wheat alpha amylase inhibitor 0.19 (SEQ ID NO: 2) expressed in HEK-293 cells (protein, listed as Triticum aestivum)
chain: SGPWMCYPGQAFQVPALPACRPLLRLQCNGSQVPEAVLRDCCQQLAHISEWCRCGALYSMLDSMYKEHGAQEGQAGTGAFPRCRREVVKLTAASITAVCRLPIVVDASGDGAYVCKDVAAYPD
modifications: FLAG tag
**Q.** With B2 as the molecule, how does the “alternative TLR4-pathway (p-IRF3)” value (TLR4-pathway) read?
**A.** strongly induced

**Q.** And the “canonical TLR4-pathway (p-NF-κB/p65)” value (TLR4-pathway)?
**A.** strongly induced

**Q.** And the “stimulatory activity after additional purification using an endotoxin depletion column” value [2]?
**A.** maintained

**Q.** And the IL-8 secretion [2]?
**A.** stimulated
